The values below come from US4760136A, “Chartreusin derivatives and salts thereof” (Ishihara Sangyo Kaisha, Ltd., priority 1984, dated 1988).

One series deals with P-388 leukemia cells. The series can be described thus: Antitumor activity: P-388 leukemia cells inoculated intraperitoneally, drug administered intravenously, BDF1 mice. It counts as in vivo. The settings on record: Mus musculus, P388, iv, BDF1 mice, P-388 i.p., read-out: T/C (%) of MST; for response vs control in vivo at 40 mg/kg: dose c: 40 mg/kg × 3, i.v. on days 1, 5 and 9; for response vs control in vivo at 80 mg/kg: dose f: 80 mg/kg × 3, i.v. on days 1, 5 and 9; for response vs control in vivo at 10 mg/kg: dose a: 10 mg/kg × 3, i.v. on days 1, 5 and 9; for response vs control in vivo at 20 mg/kg: dose b: 20 mg/kg × 3, i.v. on days 1, 5 and 9; for response vs control in vivo at 60 mg/kg: dose e: 60 mg/kg × 3, i.v. on days 1, 5 and 9. As for the experimental part:
Into BDF1 mice were inoculated intraperitoneally P-388 leukemia cells at a rate of 1×10^6 cells/mouse, and each drug to be tested was administered intravenously on the first, fifth and ninth days after the inoculation. […] The drugs were as follows solutions prepared by adding physiological saline to each of compound Nos. 8, 9, 10, 11, 17, 34, 42, 59, 80 and 134; suspensions prepared by dispersing each of compound Nos. 41, 78, 98, 100, 130, 191, 212, 213, 215, 227 and 230 to 232 and a small amount of sodium carboxymethyl cellulose (Na.CMC) in physiological saline, […]

A short description of series [1]: Acute toxicity, intravenous (once), ddY mice. It counts as in vivo. The settings on record: mouse, in vivo, iv, formulated per Preparation Example. From the text: In Table 7 are shown acute toxicity values (LD50, mg/kg) in ddY mice in the case of intravenously administering (once) each of the compounds of this invention in the form of preparations shown in the Preparation Examples shown in Table 7.

Usually LD50 stands for the dose expected to kill half of the subjects tested. A low value points to a more toxic substance. In the case of `CC=CC=CC(=O)Oc1c2cccc(OC3OC(C)C4OC(C)(C)OC4C3OC3OC(C)C(O)C(OC)C3O)c2c2oc(=O)c3c(C)ccc4oc(=O)c1c2c43` (stereo not drawn) [compound 238], in the series on P-388 leukemia cells, the response vs control in vivo at 40 mg/kg stood at 130% and the response vs control in vivo at 80 mg/kg is 192%. In series [1], the 50% lethal dose (LD50) was not below 80 mg/kg.

Take `COC1C(O)C(C)OC(OC2C(Oc3cccc4c(OC(=O)CCNC(=O)c5ccccc5)c5c(=O)oc6ccc(C)c7c(=O)oc(c34)c5c67)OC(C)C3OC(c4cccc(F)c4)OC32)C1O` (stereo not drawn) [Compound No. 47, 6-O-(N-benzoyl-β-alanyl)-3',4'-O-(m-fluorobenzylidene)-chartreusin]: in the series with P-388 leukemia cells, the response vs control in vivo at 40 mg/kg is 150% and the response vs control in vivo at 80 mg/kg is 210%. This compound showed a 50% lethal dose (LD50) in series [1] not below 80 mg/kg.

Turning to `C=CCCC(=O)Oc1c2cccc(O[C@@H]3O[C@H](C)[C@@H]4OC(c5ccccc5)O[C@@H]4[C@H]3O[C@H]3O[C@H](C)[C@H](O)[C@H](OC)[C@H]3O)c2c2oc(=O)c3c(C)ccc4oc(=O)c1c2c43` (stereo partly drawn) [compound 192], in the series on P-388 leukemia cells, the response vs control in vivo at 10 mg/kg was 153% and the response vs control in vivo at 20 mg/kg came to 199%. The same compound displayed an LD50 in series [1] not below 40 mg/kg.

With `COC1C(O)C(C)OC(OC2C(Oc3cccc4c(OC(=O)C(Cc5c[nH]c6ccccc56)NC(=O)OCc5ccccc5)c5c(=O)oc6ccc(C)c7c(=O)oc(c34)c5c67)OC(C)C3OC(c4ccccc4)OC32)C1O` (stereo not drawn) [compound 121], the response vs control in vivo at 40 mg/kg in the series on P-388 leukemia cells worked out at 146%. In series [1], this compound registered an LD50 not below 40 mg/kg.

As to `COc1cccc(C(=O)Oc2c3cccc(O[C@@H]4O[C@H](C)[C@@H]5OC(CCc6ccccc6)O[C@@H]5[C@H]4O[C@H]4O[C@H](C)[C@H](O)[C@H](OC)[C@H]4O)c3c3oc(=O)c4c(C)ccc5oc(=O)c2c3c54)c1` (stereo partly drawn) [compound 218], the response vs control in vivo at 80 mg/kg with P-388 leukemia cells came out at 176%. Also, the median lethal dose (LD50) in series [1] is not below 80 mg/kg.

In the case of `COC1C(O)C(C)OC(OC2C(Oc3cccc4c(OC(=O)CCN5CCCC5)c5c(=O)oc6ccc(C)c7c(=O)oc(c34)c5c67)OC(C)C3OC(c4ccccc4)OC32)C1O` (stereo not drawn) [Compound No. 9], in the series on P-388 leukemia cells, the response vs control in vivo at 20 mg/kg was found to be 165% and the response vs control in vivo at 40 mg/kg was 292%. Moreover, the LD50 in series [1] is not below 40 mg/kg.

As to `COC1C(O)C(C)OC(OC2C(Oc3cccc4c(OC(=O)CCCCCNC(=O)C(F)(F)F)c5c(=O)oc6ccc(C)c7c(=O)oc(c34)c5c67)OC(C)C3OC(C)(C)OC32)C1O` (stereo not drawn) [compound 98], in the series with P-388 leukemia cells, the response vs control in vivo at 80 mg/kg was determined as 187%. The compound further registered an LD50 in series [1] not below 100 mg/kg.

For `COC1C(O)C(C)OC(OC2C(Oc3cccc4c(OC(=O)CCNC=O)c5c(=O)oc6ccc(C)c7c(=O)oc(c34)c5c67)OC(C)C3OC(c4ccccc4Cl)OC32)C1O` (stereo not drawn) [Compound No. 58], in the series with P-388 leukemia cells, the response vs control in vivo at 40 mg/kg is 162% and the response vs control in vivo at 80 mg/kg amounted to 216%. The LD50 in series [1] was not below 80 mg/kg.

Consider `COC1C(O)C(C)OC(OC2C(Oc3cccc4c(OC(=O)CCC(C)=O)c5c(=O)oc6ccc(C)c7c(=O)oc(c34)c5c67)OC(C)C3OC(c4ccccc4)OC32)C1O` (stereo not drawn) [Compound No. 153], for which, in the series with P-388 leukemia cells, the response vs control in vivo at 20 mg/kg amounted to 203% and the response vs control in vivo at 40 mg/kg was found to be 243%. Also, the LD50 in series [1] is not below 40 mg/kg.

As to `C#CCCC(=O)Oc1c2cccc(O[C@@H]3O[C@H](C)[C@@H]4OC(C)(C)O[C@@H]4[C@H]3O[C@H]3O[C@H](C)[C@H](O)[C@H](OC)[C@H]3O)c2c2oc(=O)c3c(C)ccc4oc(=O)c1c2c43` [compound 201], in the series on P-388 leukemia cells, the response vs control in vivo at 40 mg/kg was 162%. Also, in series [1], the LD50 was not below 60 mg/kg.

On to `COC1C(O)C(C)OC(OC2C(Oc3cccc4c(OC(=O)CC(C)C)c5c(=O)oc6ccc(C)c7c(=O)oc(c34)c5c67)OC(C)C3OC(C)(C)OC32)C1O` (stereo not drawn) [Compound No. 171], for which, in the series with P-388 leukemia cells, the response vs control in vivo at 40 mg/kg stood at 186% and the response vs control in vivo at 80 mg/kg came out at 212%. Besides, the LD50 in series [1] is not below 80 mg/kg.

Regarding `CO[C@H]1[C@@H](O)[C@@H](C)O[C@H](O[C@H]2[C@H](Oc3cccc4c(OC(=O)CCCl)c5c(=O)oc6ccc(C)c7c(=O)oc(c34)c5c67)O[C@H](C)[C@@H]3OC(c4ccccc4F)O[C@@H]32)[C@@H]1O` (stereo partly drawn) [compound 210], in the series with P-388 leukemia cells, the response vs control in vivo at 40 mg/kg turned out to be 186%. In addition, the LD50 in series [1] is not below 60 mg/kg.

For `COC1C(O)C(C)OC(OC2C(Oc3cccc4c(OC(=O)C(CC[S+](C)[O-])NC(=O)OCc5ccccc5)c5c(=O)oc6ccc(C)c7c(=O)oc(c34)c5c67)OC(C)C3OC(c4ccccc4)OC32)C1O` (stereo not drawn) [Compound No. 79, 6-O-(N-Carbobenzyloxy-S-Oxomethionyl)-3',4'-O-Benzylidene-Chartreusin], the response vs control in vivo at 40 mg/kg with P-388 leukemia cells amounted to 179%. For the same compound, in series [1], the LD50 was not below 40 mg/kg.

In the case of `COC1C(O)C(C)OC(OC2C(Oc3cccc4c(OC(=O)C5CC=CCC5)c5c(=O)oc6ccc(C)c7c(=O)oc(c34)c5c67)OC(C)C3OC(C)(C)OC32)C1O` (stereo not drawn) [Compound No. 223, 6-O-(3-Cyclohexene-1-Carbonyl)-3',4'-O-Isopropylidene-Chartreusin], the response vs control in vivo at 60 mg/kg in the series on P-388 leukemia cells amounted to 172%. This compound returned an LD50 in series [1] not below 60 mg/kg.

Regarding `COC1C(O)C(C)OC(OC2C(Oc3cccc4c(OC(=O)C(C)C)c5c(=O)oc6ccc(C)c7c(=O)oc(c34)c5c67)OC(C)C3OC(C)(C)OC32)C1O` (stereo not drawn) [compound 222], in the series on P-388 leukemia cells, the response vs control in vivo at 40 mg/kg amounted to 144% and the response vs control in vivo at 80 mg/kg is 162%. In addition, the median lethal dose (LD50) in series [1] was not below 80 mg/kg.

`COC1C(O)C(C)OC(OC2C(Oc3cccc4c(OC(=O)C(C)CN)c5c(=O)oc6ccc(C)c7c(=O)oc(c34)c5c67)OC(C)C3OC(c4cccc(F)c4)OC32)C1O` (stereo not drawn) [Compound No. 14]: the response vs control in vivo at 20 mg/kg with P-388 leukemia cells was 195%. Moreover, the LD50 in series [1] is not below 30 mg/kg.

`COC1C(O)C(C)OC(OC2C(Oc3cccc4c(OC(=O)C(C)CN(C(=O)OCc5ccccc5)C(C)C)c5c(=O)oc6ccc(C)c7c(=O)oc(c34)c5c67)OC(C)C3OC(c4ccccc4)OC32)C1O` (stereo not drawn) [Compound No. 135, 6-O-(N-Carbobenzyloxy-N-Isopropyl-β-Amino-isobutyryl)-3',4'-O-benzylidenechartreusin]: the response vs control in vivo at 20 mg/kg in the series with P-388 leukemia cells was 167%. Also, in series [1], the LD50 was not below 40 mg/kg.

For `COC1C(O)C(C)OC(OC2C(Oc3cccc4c(OC(=O)CCCCCNC(=O)OCc5ccccc5)c5c(=O)oc6ccc(C)c7c(=O)oc(c34)c5c67)OC(C)C3OC(C)(C)OC32)C1O` (stereo not drawn) [Compound No. 111, 6-O-(N-Carbobenzyloxy-6-Amino-n-Hexanoyl)-3',4'-O-Isopropylidene-Chartreusin], the response vs control in vivo at 60 mg/kg in the series on P-388 leukemia cells came out at 175%. The LD50 in series [1] was not below 100 mg/kg.

On to `CO[C@H]1[C@@H](O)[C@@H](C)O[C@H](O[C@H]2[C@H](Oc3cccc4c(OC(=O)c5ccc(Cl)cc5Cl)c5c(=O)oc6ccc(C)c7c(=O)oc(c34)c5c67)O[C@H](C)[C@@H]3OC(C)(C)O[C@@H]32)[C@@H]1O` [Compound No. 180], for which, in the series on P-388 leukemia cells, the response vs control in vivo at 40 mg/kg came out at 145% and the response vs control in vivo at 80 mg/kg came to 208%. The same compound displayed an LD50 in series [1] not below 80 mg/kg.

`CO[C@H]1[C@@H](O)[C@@H](C)O[C@H](O[C@H]2[C@H](Oc3cccc4c(OC(=O)c5ccccc5Cl)c5c(=O)oc6ccc(C)c7c(=O)oc(c34)c5c67)O[C@H](C)[C@@H]3OC(C)(C)O[C@@H]32)[C@@H]1O` [Compound No. 181]: in the series with P-388 leukemia cells, the response vs control in vivo at 40 mg/kg was 145% and the response vs control in vivo at 80 mg/kg amounted to 208%. For the same compound, the LD50 in series [1] is not below 80 mg/kg.

Take `COC1C(O)C(C)OC(OC2C(Oc3cccc4c(OC(=O)CCNC(C)=O)c5c(=O)oc6ccc(C)c7c(=O)oc(c34)c5c67)OC(C)C3OC(c4cccc(C(F)(F)F)c4)OC32)C1O` (stereo not drawn) [Compound No. 53]: in the series on P-388 leukemia cells, the response vs control in vivo at 40 mg/kg was 165% and the response vs control in vivo at 80 mg/kg was 239%. Also, in series [1], the LD50 is not below 80 mg/kg.

As to `COC1C(O)C(C)OC(OC2C(Oc3cccc4c(OC(=O)CCCCCCCCCCCNC(C)=O)c5c(=O)oc6ccc(C)c7c(=O)oc(c34)c5c67)OC(C)C3OC(C)(C)OC32)C1O` (stereo not drawn) [compound 129], the response vs control in vivo at 160 mg/kg in the series on P-388 leukemia cells (dose i: 160 mg/kg × 3, i.v. on days 1, 5 and 9) is 167%. Besides, in series [1], the LD50 was not below 180 mg/kg.

As to `COC1C(O)C(C)OC(OC2C(Oc3cccc4c(OC(=O)CCCO)c5c(=O)oc6ccc(C)c7c(=O)oc(c34)c5c67)OC(C)C3OC(c4ccccc4)OC32)C1O` (stereo not drawn) [Compound No. 147, 6-O-(4-Hydroxy-n-Butyryl)-3',4'-O-Benzylidene-Chartreusin], the response vs control in vivo at 20 mg/kg in the series with P-388 leukemia cells was determined as 214%. The compound also displayed an LD50 in series [1] not below 40 mg/kg.

As for `COC1C(O)C(C)OC(OC2C(Oc3cccc4c(OC(=O)CCNC(=O)CN)c5c(=O)oc6ccc(C)c7c(=O)oc(c34)c5c67)OC(C)C3OC(c4cccc(F)c4)OC32)C1O` (stereo not drawn) [compound 33, 6-O-(glycyl-β-alanyl)-3',4'-O-(m-fluorobenzylidene)-chartreusin phosphate], in the series on P-388 leukemia cells, the response vs control in vivo at 10 mg/kg was determined as 157% and the response vs control in vivo at 20 mg/kg was determined as 186%. Also, the LD50 in series [1] was not below 40 mg/kg.
